The kinase profiling compilation of Christmann-Franck et al. (2016)
Each block holds one molecule with its values, some of them ahead of it.

What was measured:
[1] = biological target: ACVR2B (human) (UniProt Q13705); assay: KINOMEscan competition binding; details: compound 10.0 µM
[2] = biological target: ANKK1 (human) (UniProt Q8NFD2); assay: KINOMEscan competition binding; details: compound 10.0 µM
[3] = biological target: CDK16 (human) (UniProt Q00536); assay: KINOMEscan competition binding; details: compound 10.0 µM
[4] = biological target: CSNK1E (human) (UniProt P49674); assay: KINOMEscan competition binding; details: compound 10.0 µM
[5] = biological target: CSNK2A2 (human) (UniProt P19784); assay: KINOMEscan competition binding; details: compound 10.0 µM
[6] = biological target: DAPK1 (human) (UniProt P53355); assay: KINOMEscan competition binding; details: compound 10.0 µM
[7] = biological target: DAPK2 (human) (UniProt Q9UIK4); assay: KINOMEscan competition binding; details: compound 10.0 µM
[8] = biological target: DYRK1B (human) (UniProt Q9Y463); assay: KINOMEscan competition binding; details: compound 10.0 µM
[9] = biological target: GSK3A (human) (UniProt P49840); assay: KINOMEscan competition binding; details: compound 10.0 µM
[10] = biological target: GSK3B (human) (UniProt P49841); assay: KINOMEscan competition binding; details: compound 10.0 µM
[11] = biological target: HIPK1 (human) (UniProt Q86Z02); assay: KINOMEscan competition binding; details: compound 10.0 µM
[12] = biological target: JAK1 JH2 pseudokinase (human) (UniProt P23458); assay: KINOMEscan competition binding; details: compound 10.0 µM
[13] = biological target: MAP2K3 (human) (UniProt P46734); assay: KINOMEscan competition binding; details: compound 10.0 µM
[14] = biological target: MAP3K7 (human) (UniProt O43318); assay: KINOMEscan competition binding; details: compound 10.0 µM
[15] = biological target: MAP4K2 (human) (UniProt Q12851); assay: KINOMEscan competition binding; details: compound 10.0 µM
[16] = biological target: MAPKAPK5 (human) (UniProt Q8IW41); assay: KINOMEscan competition binding; details: compound 10.0 µM
[17] = biological target: PIM1 (human) (UniProt P11309); assay: KINOMEscan competition binding; details: compound 10.0 µM
[18] = biological target: PIM2 (human) (UniProt Q9P1W9); assay: KINOMEscan competition binding; details: compound 10.0 µM
[19] = biological target: PIM3 (human) (UniProt Q86V86); assay: KINOMEscan competition binding; details: compound 10.0 µM
[20] = biological target: PLK4 (human) (UniProt O00444); assay: KINOMEscan competition binding; details: compound 10.0 µM
[21] = biological target: RIPK4 (human) (UniProt P57078); assay: KINOMEscan competition binding; details: compound 10.0 µM
[22] = biological target: RPS6KA1 KD2 (human) (UniProt Q15418); assay: KINOMEscan competition binding; details: compound 10.0 µM
[23] = biological target: RPS6KA2 KD2 (human) (UniProt Q15349); assay: KINOMEscan competition binding; details: compound 10.0 µM
[24] = biological target: RPS6KA6 KD2 (human) (UniProt Q9UK32); assay: KINOMEscan competition binding; details: compound 10.0 µM
[25] = biological target: STK17A (human) (UniProt Q9UEE5); assay: KINOMEscan competition binding; details: compound 10.0 µM
[26] = biological target: STK17B (human) (UniProt O94768); assay: KINOMEscan competition binding; details: compound 10.0 µM
[27] = biological target: STK24 (human) (UniProt Q9Y6E0); assay: KINOMEscan competition binding; details: compound 10.0 µM
[28] = biological target: TGFBR2 (human) (UniProt P37173); assay: KINOMEscan competition binding; details: compound 10.0 µM
[29] = biological target: TLK1 (human) (UniProt Q9UKI8); assay: KINOMEscan competition binding; details: compound 10.0 µM
[30] = biological target: TYK2 JH2 pseudokinase (human) (UniProt P29597); assay: KINOMEscan competition binding; details: compound 10.0 µM
[31] = biological target: PIM1 (human) (UniProt P11309); assay: SelectScreen, TR FRET
[32] = biological target: PIM2 (human) (UniProt Q9P1W9); assay: SelectScreen, TR FRET
[33] = biological target: ALK (human) (UniProt Q9UM73); assay: KINOMEscan competition binding; details: compound 10.0 µM
[34] = biological target: CAMK2A (human) (UniProt Q9UQM7); assay: KINOMEscan competition binding; details: compound 10.0 µM
[35] = biological target: CAMKK1 (human) (UniProt Q8N5S9); assay: KINOMEscan competition binding; details: compound 10.0 µM
[36] = biological target: CAMKK2 (human) (UniProt Q96RR4); assay: KINOMEscan competition binding; details: compound 10.0 µM
[37] = biological target: CLK2 (human) (UniProt P49760); assay: KINOMEscan competition binding; details: compound 10.0 µM
[38] = biological target: DAPK3 (human) (UniProt O43293); assay: KINOMEscan competition binding; details: compound 10.0 µM
[39] = biological target: DCLK1 (human) (UniProt O15075); assay: KINOMEscan competition binding; details: compound 10.0 µM
[40] = biological target: DCLK2 (human) (UniProt Q8N568); assay: KINOMEscan competition binding; details: compound 10.0 µM
[41] = biological target: GAK (human) (UniProt O14976); assay: KINOMEscan competition binding; details: compound 10.0 µM
[42] = biological target: MAPK7 (human) (UniProt Q13164); assay: KINOMEscan competition binding; details: compound 10.0 µM
[43] = biological target: MET (human) (UniProt P08581); assay: KINOMEscan competition binding; details: compound 10.0 µM
[44] = biological target: MINK1 (human) (UniProt Q8N4C8); assay: KINOMEscan competition binding; details: compound 10.0 µM
[45] = biological target: MYLK (human) (UniProt Q15746); assay: KINOMEscan competition binding; details: compound 10.0 µM
[46] = biological target: PLK1 (human) (UniProt P53350); assay: KINOMEscan competition binding; details: compound 10.0 µM
[47] = biological target: PLK3 (human) (UniProt Q9H4B4); assay: KINOMEscan competition binding; details: compound 10.0 µM
[48] = biological target: PRKD1 (human) (UniProt Q15139); assay: KINOMEscan competition binding; details: compound 10.0 µM
[49] = biological target: PTK2 (human) (UniProt Q05397); assay: KINOMEscan competition binding; details: compound 10.0 µM
[50] = biological target: SLK (human) (UniProt Q9H2G2); assay: KINOMEscan competition binding; details: compound 10.0 µM
[51] = biological target: STK33 (human) (UniProt Q9BYT3); assay: KINOMEscan competition binding; details: compound 10.0 µM
[52] = biological target: TNK1 (human) (UniProt Q13470); assay: KINOMEscan competition binding; details: compound 10.0 µM
[53] = biological target: TTK (human) (UniProt P33981); assay: KINOMEscan competition binding
[54] = biological target: TTK (human) (UniProt P33981); assay: SelectScreen, TR FRET
[55] = biological target: MYO3B (human) (UniProt Q8WXR4); assay: KINOMEscan competition binding; details: compound 10.0 µM

Sequence of PIM2 (human) (Q9P1W9 whole entry, looked up): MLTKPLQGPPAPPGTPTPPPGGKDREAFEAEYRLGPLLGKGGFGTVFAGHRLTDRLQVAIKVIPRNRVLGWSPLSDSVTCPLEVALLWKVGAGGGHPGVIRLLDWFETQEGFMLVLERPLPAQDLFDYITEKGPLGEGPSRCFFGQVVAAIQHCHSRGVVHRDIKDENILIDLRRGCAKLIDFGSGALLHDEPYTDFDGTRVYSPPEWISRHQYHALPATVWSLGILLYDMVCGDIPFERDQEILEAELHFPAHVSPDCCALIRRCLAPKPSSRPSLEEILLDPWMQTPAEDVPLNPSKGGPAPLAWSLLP
Sequence of PIM1 (human) (P11309 whole entry, looked up): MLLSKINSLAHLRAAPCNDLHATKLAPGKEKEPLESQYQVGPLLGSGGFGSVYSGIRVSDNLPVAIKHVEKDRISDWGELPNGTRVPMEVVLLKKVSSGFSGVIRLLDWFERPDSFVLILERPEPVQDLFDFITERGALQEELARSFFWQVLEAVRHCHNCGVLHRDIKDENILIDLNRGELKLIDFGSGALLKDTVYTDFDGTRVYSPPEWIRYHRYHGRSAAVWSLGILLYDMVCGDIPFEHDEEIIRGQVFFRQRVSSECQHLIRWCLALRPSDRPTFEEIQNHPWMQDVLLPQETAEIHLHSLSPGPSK
Sequence of TTK (human) (P33981 whole entry, looked up): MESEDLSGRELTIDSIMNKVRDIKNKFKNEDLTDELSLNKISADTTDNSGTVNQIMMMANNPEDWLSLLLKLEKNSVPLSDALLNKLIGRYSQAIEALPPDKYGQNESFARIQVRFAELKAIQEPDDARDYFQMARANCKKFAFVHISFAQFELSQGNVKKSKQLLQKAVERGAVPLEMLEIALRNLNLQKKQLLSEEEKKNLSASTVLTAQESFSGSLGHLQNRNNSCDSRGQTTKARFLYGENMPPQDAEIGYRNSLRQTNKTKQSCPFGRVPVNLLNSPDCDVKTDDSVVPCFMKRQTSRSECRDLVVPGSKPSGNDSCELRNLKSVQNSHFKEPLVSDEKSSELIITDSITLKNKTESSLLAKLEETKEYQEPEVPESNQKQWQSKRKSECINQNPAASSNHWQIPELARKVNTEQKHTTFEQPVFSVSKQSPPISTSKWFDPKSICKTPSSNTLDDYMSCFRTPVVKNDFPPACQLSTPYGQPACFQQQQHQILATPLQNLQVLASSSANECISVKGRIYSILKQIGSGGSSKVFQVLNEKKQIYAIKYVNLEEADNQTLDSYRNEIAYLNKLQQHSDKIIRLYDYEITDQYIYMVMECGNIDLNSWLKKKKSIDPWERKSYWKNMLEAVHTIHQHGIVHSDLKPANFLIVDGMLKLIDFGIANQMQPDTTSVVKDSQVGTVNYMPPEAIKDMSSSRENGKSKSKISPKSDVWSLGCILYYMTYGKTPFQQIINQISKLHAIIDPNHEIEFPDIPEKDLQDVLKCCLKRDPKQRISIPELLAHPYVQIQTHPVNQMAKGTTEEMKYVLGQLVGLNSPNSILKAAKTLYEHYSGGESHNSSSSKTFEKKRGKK
Sequence of DAPK2 (human) (Q9UIK4 whole entry, looked up): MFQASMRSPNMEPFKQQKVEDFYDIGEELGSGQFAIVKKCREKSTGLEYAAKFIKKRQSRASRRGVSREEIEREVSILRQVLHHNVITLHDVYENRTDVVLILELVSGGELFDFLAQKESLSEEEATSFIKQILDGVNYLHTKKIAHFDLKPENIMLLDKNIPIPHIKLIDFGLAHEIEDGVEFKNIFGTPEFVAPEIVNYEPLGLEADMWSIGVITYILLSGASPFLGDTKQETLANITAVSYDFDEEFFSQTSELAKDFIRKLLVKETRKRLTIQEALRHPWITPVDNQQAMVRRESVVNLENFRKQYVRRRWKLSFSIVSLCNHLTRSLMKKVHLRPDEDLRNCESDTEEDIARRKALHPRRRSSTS
Sequence of RPS6KA2 KD2 (human) (Q15349 whole entry, looked up): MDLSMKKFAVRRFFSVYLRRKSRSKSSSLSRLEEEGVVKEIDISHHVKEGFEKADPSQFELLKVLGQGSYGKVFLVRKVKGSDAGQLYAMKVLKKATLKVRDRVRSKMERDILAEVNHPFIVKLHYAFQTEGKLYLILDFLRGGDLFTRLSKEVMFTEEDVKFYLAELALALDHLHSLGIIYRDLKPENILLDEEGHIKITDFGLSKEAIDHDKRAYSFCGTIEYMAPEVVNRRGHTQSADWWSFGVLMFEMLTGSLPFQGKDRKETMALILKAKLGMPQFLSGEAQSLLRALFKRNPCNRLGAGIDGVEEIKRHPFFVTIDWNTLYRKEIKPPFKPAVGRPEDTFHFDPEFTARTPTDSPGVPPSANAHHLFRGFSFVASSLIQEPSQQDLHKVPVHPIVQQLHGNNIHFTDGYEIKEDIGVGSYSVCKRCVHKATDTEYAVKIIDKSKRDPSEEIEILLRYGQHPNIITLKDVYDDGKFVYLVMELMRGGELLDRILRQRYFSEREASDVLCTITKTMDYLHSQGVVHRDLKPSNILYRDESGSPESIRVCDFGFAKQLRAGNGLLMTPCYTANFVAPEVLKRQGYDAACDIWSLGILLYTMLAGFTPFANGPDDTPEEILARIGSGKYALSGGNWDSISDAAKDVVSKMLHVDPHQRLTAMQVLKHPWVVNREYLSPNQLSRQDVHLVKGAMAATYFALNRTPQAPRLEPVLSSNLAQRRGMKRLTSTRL
Sequence of CDK16 (human) (Q00536 whole entry, looked up): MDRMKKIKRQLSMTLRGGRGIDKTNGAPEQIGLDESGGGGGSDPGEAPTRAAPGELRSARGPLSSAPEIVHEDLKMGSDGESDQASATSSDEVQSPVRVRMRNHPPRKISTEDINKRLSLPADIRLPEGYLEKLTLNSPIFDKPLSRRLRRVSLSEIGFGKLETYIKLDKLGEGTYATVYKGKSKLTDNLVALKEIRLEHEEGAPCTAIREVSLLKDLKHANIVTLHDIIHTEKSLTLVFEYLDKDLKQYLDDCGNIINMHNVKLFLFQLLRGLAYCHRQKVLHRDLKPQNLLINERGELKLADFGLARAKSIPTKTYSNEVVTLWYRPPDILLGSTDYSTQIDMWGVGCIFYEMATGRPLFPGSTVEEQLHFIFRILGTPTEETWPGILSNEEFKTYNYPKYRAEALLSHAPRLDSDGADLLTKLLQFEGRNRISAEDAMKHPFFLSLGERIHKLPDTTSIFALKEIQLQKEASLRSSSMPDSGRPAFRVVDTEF
Sequence of HIPK1 (human) (Q86Z02 whole entry, looked up): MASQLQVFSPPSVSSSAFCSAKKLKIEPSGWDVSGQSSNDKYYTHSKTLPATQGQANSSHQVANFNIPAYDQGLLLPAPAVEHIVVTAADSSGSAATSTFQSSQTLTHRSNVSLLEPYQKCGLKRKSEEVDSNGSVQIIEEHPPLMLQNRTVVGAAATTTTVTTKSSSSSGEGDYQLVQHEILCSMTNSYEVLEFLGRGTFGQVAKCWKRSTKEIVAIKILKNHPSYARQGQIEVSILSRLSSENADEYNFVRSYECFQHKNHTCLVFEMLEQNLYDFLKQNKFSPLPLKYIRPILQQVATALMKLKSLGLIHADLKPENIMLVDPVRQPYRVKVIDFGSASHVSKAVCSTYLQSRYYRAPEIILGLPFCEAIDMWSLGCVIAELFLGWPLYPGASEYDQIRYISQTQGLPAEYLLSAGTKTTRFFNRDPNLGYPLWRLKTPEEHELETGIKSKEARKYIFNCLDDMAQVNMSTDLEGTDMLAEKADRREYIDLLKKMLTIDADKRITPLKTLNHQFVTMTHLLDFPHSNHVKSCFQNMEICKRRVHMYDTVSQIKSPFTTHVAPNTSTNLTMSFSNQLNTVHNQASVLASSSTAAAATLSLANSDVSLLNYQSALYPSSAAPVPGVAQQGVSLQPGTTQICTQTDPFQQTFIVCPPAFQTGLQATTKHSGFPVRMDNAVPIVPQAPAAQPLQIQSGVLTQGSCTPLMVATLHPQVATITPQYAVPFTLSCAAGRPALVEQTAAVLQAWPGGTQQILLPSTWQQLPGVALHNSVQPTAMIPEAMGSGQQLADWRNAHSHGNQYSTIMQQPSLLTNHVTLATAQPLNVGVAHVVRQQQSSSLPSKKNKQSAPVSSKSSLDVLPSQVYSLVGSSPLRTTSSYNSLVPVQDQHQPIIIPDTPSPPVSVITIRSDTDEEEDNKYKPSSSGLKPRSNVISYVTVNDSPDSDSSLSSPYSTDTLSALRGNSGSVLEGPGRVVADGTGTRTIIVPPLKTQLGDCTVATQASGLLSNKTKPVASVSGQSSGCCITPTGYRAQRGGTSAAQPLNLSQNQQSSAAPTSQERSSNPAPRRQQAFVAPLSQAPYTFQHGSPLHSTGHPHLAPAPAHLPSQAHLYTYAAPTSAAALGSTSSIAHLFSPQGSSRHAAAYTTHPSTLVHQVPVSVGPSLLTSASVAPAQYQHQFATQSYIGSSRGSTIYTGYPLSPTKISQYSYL
Sequence of RPS6KA6 KD2 (human) (Q9UK32 whole entry, looked up): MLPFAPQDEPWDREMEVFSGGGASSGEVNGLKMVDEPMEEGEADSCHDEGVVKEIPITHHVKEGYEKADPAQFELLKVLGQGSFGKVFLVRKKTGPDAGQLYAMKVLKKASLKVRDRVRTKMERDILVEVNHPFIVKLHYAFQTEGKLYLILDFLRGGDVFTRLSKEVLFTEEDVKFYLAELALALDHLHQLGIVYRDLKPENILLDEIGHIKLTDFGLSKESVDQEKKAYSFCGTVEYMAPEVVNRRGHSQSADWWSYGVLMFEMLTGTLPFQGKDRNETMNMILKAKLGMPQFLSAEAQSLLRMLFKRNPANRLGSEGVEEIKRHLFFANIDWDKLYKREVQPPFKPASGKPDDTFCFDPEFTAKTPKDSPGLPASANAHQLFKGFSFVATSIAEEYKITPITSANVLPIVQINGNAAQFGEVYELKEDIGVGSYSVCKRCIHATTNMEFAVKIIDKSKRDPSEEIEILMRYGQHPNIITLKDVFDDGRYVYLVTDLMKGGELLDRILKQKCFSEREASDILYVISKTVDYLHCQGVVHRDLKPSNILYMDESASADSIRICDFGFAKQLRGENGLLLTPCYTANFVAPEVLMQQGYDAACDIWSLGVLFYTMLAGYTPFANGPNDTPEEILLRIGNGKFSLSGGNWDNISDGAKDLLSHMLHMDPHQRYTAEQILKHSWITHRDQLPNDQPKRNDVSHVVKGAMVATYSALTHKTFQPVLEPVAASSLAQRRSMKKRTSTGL

- kinase still bound, per cent of control [1]: 33%
- kinase still bound, per cent of control [2]: 25%
- kinase still bound, per cent of control [3]: 24%
- kinase still bound, per cent of control [4]: 15%
- kinase still bound, per cent of control [5]: 33%
- kinase still bound, per cent of control [6]: 12%
- kinase still bound, per cent of control [7]: 24%
- kinase still bound, per cent of control [8]: 10%
- kinase still bound, per cent of control [9]: 18%
- kinase still bound, per cent of control [10]: 34%
- kinase still bound, per cent of control [11]: 0.25%
- kinase still bound, per cent of control [12]: 32%
- kinase still bound, per cent of control [13]: 4.6%
- kinase still bound, per cent of control [14]: 2.6%
- kinase still bound, per cent of control [15]: 26%
- kinase still bound, per cent of control [16]: 12%
- kinase still bound, per cent of control [17]: 6.4%
- kinase still bound, per cent of control [18]: 0.65%
- kinase still bound, per cent of control [19]: 8.2%
- kinase still bound, per cent of control [20]: 3.8%
- kinase still bound, per cent of control [21]: 1.3%
- kinase still bound, per cent of control [22]: 17%
- kinase still bound, per cent of control [23]: 26%
- kinase still bound, per cent of control [24]: 22%
- kinase still bound, per cent of control [25]: 0.1%
- kinase still bound, per cent of control [26]: 0.4%
- kinase still bound, per cent of control [27]: 23%
- kinase still bound, per cent of control [28]: 5.7%
- kinase still bound, per cent of control [29]: 12%
- kinase still bound, per cent of control [30]: 8.8%
- IC50 [31]: 131 nM
- IC50 [32]: 115 nM
Compound: N=C1NC(=O)/C(=C/c2ccc(-c3ccc4c(C(=O)Nc5ccc(N6CCNCC6)cc5)cccc4c3)o2)S1

- kinase still bound, per cent of control [33]: 20%
- kinase still bound, per cent of control [34]: 20%
- kinase still bound, per cent of control [35]: 33%
- kinase still bound, per cent of control [36]: 7.6%
- kinase still bound, per cent of control [37]: 15%
- kinase still bound, per cent of control [6]: 7.2%
- kinase still bound, per cent of control [7]: 21%
- kinase still bound, per cent of control [38]: 8.2%
- kinase still bound, per cent of control [39]: 3.4%
- kinase still bound, per cent of control [40]: 1.8%
- kinase still bound, per cent of control [41]: 3.2%
- kinase still bound, per cent of control [42]: 9.6%
- kinase still bound, per cent of control [43]: 20%
- kinase still bound, per cent of control [44]: 33%
- kinase still bound, per cent of control [45]: 0.45%
- kinase still bound, per cent of control [46]: 22%
- kinase still bound, per cent of control [47]: 2.8%
- kinase still bound, per cent of control [20]: 16%
- kinase still bound, per cent of control [48]: 34%
- kinase still bound, per cent of control [49]: 17%
- kinase still bound, per cent of control [23]: 34%
- kinase still bound, per cent of control [24]: 32%
- kinase still bound, per cent of control [50]: 2%
- kinase still bound, per cent of control [51]: 7%
- kinase still bound, per cent of control [52]: 24%
- Kd [53]: 3920 nM
- kinase still bound, per cent of control ([53]; compound 10.0 µM): 9.4%
- IC50 [54]: > 10000 nM
Compound: COc1cc(C(=O)NC2CCN(C)CC2)ccc1Nc1ncc2c(n1)N(C1CCCC1)CC(C)C(=O)N2C (configuration not stated)

- kinase still bound, per cent of control [3]: 32%
- kinase still bound, per cent of control [11]: 25%
- kinase still bound, per cent of control [13]: 24%
- kinase still bound, per cent of control [55]: 2.9%
- kinase still bound, per cent of control [17]: 16%
- kinase still bound, per cent of control [18]: 6.2%
- kinase still bound, per cent of control [19]: 13%
Compound: N=C1NC(=O)/C(=C/c2cccc(-c3ccc(S(N)(=O)=O)cc3)c2)S1
